Common to all, as to assay type: cell-based
Data set [1] can be described thus: Cellular toxicity assay in CEM cells. The settings on record: human, CEM lymphoblastoid cells, read-out: Cytotoxicity. The procedure: (§1) The toxicity of the compounds was assessed in Vero, human PBM, CEM (human lymphoblastoid), MT-2, and HepG2 cells, as described previously (see Schinazi R. F., Sommadossi J.-P., Saalmann V., Cannon D. L., Xie M.-Y., Hart G. C., Smith G. A. & Hahn E. F. Antimicrob. Agents Chemother. 1990, 34, 1061-67). Cycloheximide was included as positive cytotoxic control, and untreated cells exposed to solvent were included as negative controls. The cytotoxicity IC50 was obtained from the concentration-response curve using the median effective method described previously (see Chou T.-C. & Talalay P. Adv. Enzyme Regul. 1984, 22, 27-55; Belen'kii M. S. & Schinazi R. F. Antiviral Res. 1994, 25, 1-11).

Data set [2] is described as follows: Cellular toxicity assay in HepG2 cells. The settings on record: human, read-out: Cytotoxicity. On the procedure: as §1
The next data set concerns wild type HBV. Briefly: Anti-HBV assay in AD-38 cell line. The settings on record: Hepatitis B virus, AD-38 cells, HBV in culture supernatant; for EC50: read-out: Anti-HBV activity EC50; for EC90: read-out: Anti-HBV activity EC90. The procedure:
The anti-HBV activity of the compounds was determined by treating the AD-38 cell line carrying wild type HBV under the control of tetracycline (see Ladner S. K., Otto M. J., Barker C. S., Zaifert K., Wang G. H., Guo J. T., Seeger C. & King R. W. Antimicrob. Agents Chemother. 1997, 41, 1715-20). Removal of tetracycline from the medium [Tet (−)] results in the production of HBV. The levels of HBV in the culture supernatant fluids from cells treated with the compounds were compared with that of the untreated controls. Control cultures with tetracycline [Tet (+)] were also maintained to determine the basal levels of HBV expression. 3TC was included as positive control.
The median effective concentrations (EC50) ranges of several of the compounds described herein against HBV are shown in Table 3: […]

Data set [3] in a line: Cellular toxicity assay in human PBM cells. The settings on record: human, human PBM cells, read-out: Cytotoxicity. The procedure:
as §1

Data set [4] can be described thus: Cellular toxicity assay in Vero cells. The settings on record: African green monkey, read-out: Cytotoxicity. On the procedure:
as §1

Structures are written as SMILES.

For orientation: EC50 means the concentration needed to bring the measured effect to its halfway point. Broadly, the EC90 is the point of the concentration-response curve where the effect stands at 90%. As to `Cc1c(C(=O)C(=O)NCc2nccn2C)c(C)n(C)c1C(=O)Nc1ccc(F)c(F)c1` [Compound 48, N-(3,4-difluorophenyl)-1,3,5-trimethyl-4-(2-(((1-methyl-1H-imidazol-2-yl)methyl)amino)-2-oxoacetyl)-1H-pyrrole-2-carboxamide], the CC50 in data set [1] was 27 µM; in data set [2], 84 µM; in data set [3], over 100 µM; in data set [4], over 100 µM. Besides, the EC50 in the data set on wild type HBV was in the range of 0.001 to 0.009 µM. Further, the EC90 in the data set on wild type HBV is 0.01 to 0.09 µM.

For `Cc1c(C(=O)C(=O)Nc2ccccn2)c(C)n(C)c1C(=O)Nc1ccccc1` [Compound 52, 1,3,5-trimethyl-4-(2-oxo-2-(pyridin-2-ylamino)acetyl)-N-phenyl-1H-pyrrole-2-carboxamide], the CC50 in data set [1] was 50 µM; in data set [2] it was over 100 µM; in data set [3], over 100 µM; in data set [4] it was over 100 µM. The EC50 with wild type HBV lay in the range of 0.01 to 0.09 µM. Besides, in the data set with wild type HBV, the EC90 lay within 0.1 to 0.9 µM.

Consider `C#CCNC(=O)C(=O)c1c(C)c(C(=O)Nc2cccc(OC(F)(F)F)c2)n(C)c1C` [Compound 55, 1,3,5-trimethyl-4-(2-oxo-2-(prop-2-yn-1-ylamino)acetyl)-N-(3-(trifluoromethoxy)phenyl)-1H-pyrrole-2-carboxamide], for which the CC50 in data set [1] was 38 µM; in data set [2], 88 µM; in data set [3], over 100 µM; in data set [4], 15 µM. Also, the EC50 in the data set on wild type HBV lay in the range of 0.1 to 0.9 µM. Also, in the data set on wild type HBV, the concentration for an effect of 90% (EC90) is 1 to 9 µM.

On to `C#CCNC(=O)C(=O)c1c(C)c(C(=O)NC(C)(C)c2ccc(F)c(F)c2)n(C)c1C` [Compound 56, N-(2-(3,4-difluorophenyl)propan-2-yl)-1,3,5-trimethyl-4-(2-oxo-2-(prop-2-yn-1-ylamino)acetyl)-1H-pyrrole-2-carboxamide], for which the CC50 in data set [1], in data set [2], in data set [3] and in data set [4] was over 100 µM throughout. For the same compound, the EC50 with wild type HBV was 1 to 9 µM.

With `C#CCNC(=O)C(=O)c1c(C)c(C(=O)NC2(c3ccc(F)c(F)c3)CC2)n(C)c1C` [Compound 57, N-(1-(3,4-difluorophenyl)cyclopropyl)-1,3,5-trimethyl-4-(2-oxo-2-(prop-2-yn-1-ylamino)acetyl)-1H-pyrrole-2-carboxamide], the CC50 in data set [1], in data set [2], in data set [3] and in data set [4] was over 100 µM each time. Moreover, the EC50 with wild type HBV is 1 to 9 µM.

As to `C#CCNC(=O)C(=O)c1c(C)c(C(=O)Nc2ccccc2)n(C)c1C` [Compound 58, 1,3,5-trimethyl-4-(2-oxo-2-(prop-2-yn-1-ylamino)acetyl)-N-phenyl-1H-pyrrole-2-carboxamide], the CC50 in data set [1], in data set [2], in data set [3] and in data set [4] was over 100 µM throughout. Moreover, the concentration for a half-maximal effect (EC50) in the data set on wild type HBV fell in the range of 0.01 to 0.09 µM. Further, the concentration for an effect of 90% (EC90) in the data set on wild type HBV fell in the range of 0.1 to 0.9 µM.

As for `C#CCNC(=O)C(=O)c1c(C)c(C(=O)Nc2ccc(S(F)(F)(F)(F)F)cc2)n(C)c1C` [Compound 59, 1,3,5-trimethyl-4-(2-oxo-2-(prop-2-yn-1-ylamino)acetyl)-N-(4-(pentafluorosulfanyl)phenyl)-1H-pyrrole-2-carboxamide], the CC50 in data set [1] came out at 3 µM; in data set [2] it was 43 µM; in data set [3], 44 µM; in data set [4], 12 µM. The EC50 in the data set with wild type HBV is 1 to 9 µM.

Regarding `C#CCNC(=O)C(=O)c1c(C)c(C(=O)Nc2cccc(S(F)(F)(F)(F)F)c2)n(C)c1C` [Compound 60, 1,3,5-trimethyl-4-(2-oxo-2-(prop-2-yn-1-ylamino)acetyl)-N-(3-(pentafluorosulfanyl)phenyl)-1H-pyrrole-2-carboxamide], the CC50 in data set [1] is 23 µM; in data set [2], over 100 µM; in data set [3] it was 86 µM; in data set [4], 82 µM. Besides, the EC50 in the data set on wild type HBV was 0.1 to 0.9 µM. Besides, the 90% effect concentration (EC90) in the data set on wild type HBV lay within 0.1 to 0.9 µM.

Turning to `C#CCNC(=O)C(=O)c1c(C)c(C(=O)Nc2ccc(F)nc2)n(C)c1C` [Compound 61, N-(6-fluoropyridin-3-yl)-1,3,5-trimethyl-4-(2-oxo-2-(prop-2-yn-1-ylamino)acetyl)-1H-pyrrole-2-carboxamide], the CC50 in data set [1], in data set [2], in data set [3] and in data set [4] was over 100 µM in each case. Further, the EC50 in the data set on wild type HBV was in the range of 0.1 to 0.9 µM. Moreover, in the data set with wild type HBV, the 90% effect concentration (EC90) lay within 0.1 to 0.9 µM.

Turning to `C#CCNC(=O)C(=O)c1c(C)c(C(=O)Nc2cncnc2)n(C)c1C` [Compound 62, 1,3,5-trimethyl-4-(2-oxo-2-(prop-2-yn-1-ylamino)acetyl)-N-(pyrimidin-5-yl)-1H-pyrrole-2-carboxamide], the CC50 in data set [1], in data set [2], in data set [3] and in data set [4] was over 100 µM each time. Also, in the data set with wild type HBV, the EC50 was in the range of 1 to 9 µM. Also, the 90% effect concentration (EC90) with wild type HBV lay within 1 to 9 µM.

Take `C#CCNC(=O)C(=O)c1c(C)c(C(=O)Nc2ccncc2)n(C)c1C` [Compound 63, 1,3,5-trimethyl-4-(2-oxo-2-(prop-2-yn-1-ylamino)acetyl)-N-(pyridin-4-yl)-1H-pyrrole-2-carboxamide]: the CC50 in data set [1], in data set [2], in data set [3] and in data set [4] was over 100 µM in each case. Also, in the data set with wild type HBV, the EC50 was in the range of 0.1 to 0.9 µM. Moreover, the EC90 in the data set with wild type HBV lay in the range of 1 to 9 µM.

Regarding `C#CCNC(=O)C(=O)c1c(C)c(C(=O)Nc2ccc(F)c(C)c2)n(C)c1C` [Compound 64, N-(4-fluoro-3-methylphenyl)-1,3,5-trimethyl-4-(2-oxo-2-(prop-2-yn-1-ylamino)acetyl)-1H-pyrrole-2-carboxamide], the CC50 is 18 µM in data set [1], over 100 µM in data set [2], over 100 µM in data set [3] and 96 µM in data set [4]. Also, the EC50 with wild type HBV is 0.0001 to 0.0009 µM. In addition, the EC90 in the data set with wild type HBV fell in the range of 0.001 to 0.009 µM.

For `C#CCNC(=O)C(=O)c1c(C)c(C(=O)Nc2ccc(F)c(Cl)c2)n(C)c1C` [Compound 66, N-(3-chloro-4-fluorophenyl)-1,3,5-trimethyl-4-(2-oxo-2-(prop-2-yn-1-ylamino)acetyl)-1H-pyrrole-2-carboxamide], the CC50 in data set [1] is 52 µM; in data set [2], 83 µM; in data set [3] it was over 100 µM; in data set [4], 70 µM. The concentration giving a half-maximal response (EC50) in the data set on wild type HBV was 0.001 to 0.009 µM. Also, the concentration for an effect of 90% (EC90) with wild type HBV was 0.01 to 0.09 µM.

As to `Cc1c(C(=O)C(=O)Nc2ccccc2)c(C)n(C)c1C(=O)Nc1ccc(F)c(F)c1` [Compound 69, N-(3,4-difluorophenyl)-1,3,5-trimethyl-4-(2-oxo-2-(phenylamino)acetyl)-1H-pyrrole-2-carboxamide], the CC50 was over 100 µM in data set [1], 59 µM in data set [2], over 100 µM in data set [3] and 48 µM in data set [4]. The concentration for a half-maximal effect (EC50) in the data set with wild type HBV was in the range of 0.001 to 0.009 µM. In addition, the EC90 with wild type HBV is 0.01 to 0.09 µM.

Turning to `Cc1c(C(=O)C(=O)N2CCOCC2)c(C)n(C)c1C(=O)Nc1ccc(F)c(F)c1` [Compound 72, N-(3,4-difluorophenyl)-1,3,5-trimethyl-4-(2-morpholino-2-oxoacetyl)-1H-pyrrole-2-carboxamide], the CC50 in data set [1] was 14 µM; in data set [2], 100 µM; in data set [3], 30 µM; in data set [4], 51 µM. The EC50 in the data set on wild type HBV lay within 0.1 to 0.9 µM. Moreover, in the data set with wild type HBV, the 90% effect concentration (EC90) lay within 0.1 to 0.9 µM.

As for `C=CCNC(=O)C(=O)c1c(C)c(C(=O)Nc2ccc(F)c(F)c2)n(C)c1C` [Compound 75, 4-(2-(allylamino)-2-oxoacetyl)-N-(3,4-difluorophenyl)-1,3,5-trimethyl-1H-pyrrole-2-carboxamide], the CC50 in data set [1] was 66 µM; in data set [2], over 100 µM; in data set [3] it was over 100 µM; in data set [4], 33 µM. Besides, the EC50 with wild type HBV lay within 0.001 to 0.009 µM. Moreover, the 90% effect concentration (EC90) in the data set with wild type HBV lay in the range of 0.01 to 0.09 µM.

With `Cc1c(C(=O)C(=O)Nc2nccs2)c(C)n(C)c1C(=O)Nc1ccc(F)c(F)c1` [Compound 78, N-(3,4-difluorophenyl)-1,3,5-trimethyl-4-(2-oxo-2-(thiazol-2-ylamino)acetyl)-1H-pyrrole-2-carboxamide], the CC50 was 15 µM in data set [1], 84 µM in data set [2], over 100 µM in data set [3] and over 100 µM in data set [4]. Also, in the data set with wild type HBV, the EC50 lay within 0.001 to 0.009 µM. The EC90 with wild type HBV was 0.01 to 0.09 µM.

With `Cc1c(C(=O)C(=O)NCC#N)c(C)n(C)c1C(=O)Nc1ccc(F)c(F)c1` [Compound 81, 4-(2-((cyanomethyl)amino)-2-oxoacetyl)-N-(3,4-difluorophenyl)-1,3,5-trimethyl-1H-pyrrole-2-carboxamide], the CC50 is 33 µM in data set [1], 71 µM in data set [2], 30 µM in data set [3] and over 100 µM in data set [4]. Also, the concentration giving a half-maximal response (EC50) with wild type HBV was in the range of 0.001 to 0.009 µM. The EC90 with wild type HBV is 0.1 to 0.9 µM.

The record behind these values is US10752584B2 (EMORY UNIVERSITY, priority 2016, dated 2020).
